{
  "source": "patent US6602525B1",
  "about": "(The Procter & Gamble Company, priority 2001, dated 2003)",
  "format_in_all_cases": "cell-based",
  "key": {"Enterococcus faecalis [1]": {"test_system": "Enterococcus faecalis", "assay": "Checkerboard synergy test, nitrofurantoin and uva ursi", "details": "E. faecalis isolates 21-30", "excerpt": "(§1) The checkerboard (or chessboard) method is used to assess the antimicrobial combination in vitro against the following selection of Gram-positive and Gram-negative pathogens including: Escherichia coli, Klebsiella pneumoniae, Proteus mirabilis, Serratia marcescens, Staphylococcus saprophyticus, Pseudomonas aeruginosa, and Enterococcus faecalis. […] Furthermore, the combination of nitrofurantoin and uva ursi is synergistic against four of the seven species tested, in particular E. coli, S. marcescens, P. mirabilis, and P. aeruginosa. […] [table] […] Following testing, the FIC index was calculated for each isolate panel to determine whether synergy, additivity, or antagonism occurred. […] For additivity, the FIC index is 1. For antagonism, the FIC index is 2."}, "Proteus mirabilis": {"test_system": "Proteus mirabilis", "assay": "Checkerboard synergy test, nitrofurantoin and uva ursi", "details": "nitrofurantoin alone, P. mirabilis isolates 41-50", "excerpt": "as §1"}, "Pseudomonas aeruginosa [2]": {"test_system": "Pseudomonas aeruginosa", "assay": "Checkerboard synergy test, nitrofurantoin and uva ursi", "details": "P. aeruginosa isolates 1-10", "excerpt": "as §1"}, "[3]": {"test_system": "Staphylococcus saprophyticus", "assay": "Checkerboard synergy test, nitrofurantoin and uva ursi", "details": "nitrofurantoin alone, S. saprophyticus isolates 61-70", "excerpt": "as §1"}, "Enterococcus faecalis [4]": {"test_system": "Enterococcus faecalis", "assay": "Pre-test MIC, NCCLS microbroth dilution", "details": "nitrofurantoin alone, E. faecalis, one value per isolate (Isolate ID 21-30)", "method": "(§2) Methods for Dilution Antimicrobial Susceptibility Tests for Bacteria That Grow Aerobically; Approved Standard (Fifth Edition) (2000). These standards are as follows: [table] Nitrofurantoin was added to cation-adjusted Mueller-Hinton Broth (hereinafter “CAMHB”) and dissolved. […] The uva ursi extract was serially diluted in water. For each test concentration, the final dilution was performed in CAMHB providing dilutions of 1:20 to 1:2048."}, "Pseudomonas aeruginosa [5]": {"test_system": "Pseudomonas aeruginosa", "assay": "Pre-test MIC, NCCLS microbroth dilution", "method": "as §2"}, "Serratia marcescens": {"test_system": "Serratia marcescens", "assay": "Pre-test MIC, NCCLS microbroth dilution", "details": "nitrofurantoin alone, S. marcescens, one value per isolate (Isolate ID 11-20)", "method": "as §2"}, "[6]": {"test_system": "Staphylococcus saprophyticus", "assay": "Pre-test MIC, NCCLS microbroth dilution", "details": "nitrofurantoin alone, S. saprophyticus, one value per isolate (Isolate ID 61-70)", "method": "as §2"}, "[7]": {"details": "checkerboard, nitrofurantoin alone"}},
  "note": "Several values for one entry are separate records, joined by “and”; a condition that tells them apart may be missing. Equal entries are not always repeated.",
  "data": [
    {"compound": "O=C1CN(/N=C/c2ccc([N+](=O)[O-])o2)C(=O)N1", "note": "[Nitrofurantoin, N-(5-nitro-2-furfurylidene)-1-aminohydantoin]", "values": [
      {"measurement": "MIC", "setting": "Enterococcus faecalis [1]; Enterococcus faecalis, read-out: MIC Nitrofurantoin, checkerboard, nitrofurantoin alone", "value": 16, "unit": "µg/mL"},
      {"measurement": "MIC Nitrofurantoin", "setting": "Enterococcus faecalis [1]; [7]", "value": 8, "unit": "µg/mL"},
      {"measurement": "MIC Nitrofurantoin", "setting": "Proteus mirabilis", "value": 128, "unit": "µg/mL"},
      {"measurement": "MIC", "setting": "Pseudomonas aeruginosa [2]; Pseudomonas aeruginosa, read-out: MIC Nitrofurantoin, checkerboard, nitrofurantoin alone", "value": "> 512", "unit": "µg/mL"},
      {"measurement": "MIC Nitrofurantoin", "setting": "Pseudomonas aeruginosa [2]; [7]", "value": ">512 µg/mL and 512 µg/mL"},
      {"measurement": "MIC Nitrofurantoin", "setting": "[3]", "value": 8, "unit": "µg/mL"},
      {"measurement": "MIC Nitrofurantoin", "setting": "Enterococcus faecalis [4]", "value": "8 to 64", "unit": "µg/mL"},
      {"measurement": "MIC", "setting": "Pseudomonas aeruginosa [5]; Pseudomonas aeruginosa, read-out: Nitrofurantoin MIC", "value": "> 512", "unit": "µg/mL"},
      {"measurement": "Nitrofurantoin MIC", "setting": "Pseudomonas aeruginosa [5]; pre-test, nitrofurantoin alone, P. aeruginosa, one value per isolate (Isolate ID 1-10)", "value": ">512", "unit": "µg/mL"},
      {"measurement": "MIC Nitrofurantoin", "setting": "Serratia marcescens", "value": "64 to 512", "unit": "µg/mL"},
      {"measurement": "MIC Nitrofurantoin", "setting": "[6]", "value": "8 to 32", "unit": "µg/mL"}
    ]}
  ]
}
